In ChEMBL document CHEMBL1150132, “Five new discodermolide analogues from the marine sponge Discodermia species” (J Nat Prod, 2002):

How the values were obtained:
P388 = test: Cytotoxicity against mouse P388 cells after 48 hrs by MTT assay; assay type: functional, cell-based; conditions: P388, 48 h
A549 = test: Cytotoxicity against human A549 cells; assay type: functional, cell-based

SMILES | IC50 (P388) | IC50 (A549)
C=C/C=C\[C@H](C)[C@H](OC(N)=O)[C@@H](C)[C@H](O)[C@@H](C)C/C(C)=C\[C@H](C)[C@@H](O)[C@@H](C)/C=C\[C@@H](O)C[C@H](O)[C@H](C)[C@H](O)[C@@H](C)C(=O)OC | 65.8 nM | 74 nM
C=C/C=C\[C@H](C)[C@H](OC(N)=O)[C@@H](C)[C@H](O)[C@@H](C)C/C(C)=C\[C@H](C)[C@@H](O)[C@@H](C)/C=C\[C@@H](O)C[C@@H]1OC(=O)C[C@@H](O)[C@H]1C | 172 nM | 120 nM
C=C/C=C\[C@H](C)[C@H](OC(N)=O)[C@@H](C)[C@H](O)[C@@H](C)C/C(C)=C\[C@H](C)[C@@H](O)[C@@H](C)/C=C\[C@@H](O)C[C@@H]1OC(=O)[C@@H](C)[C@@H](O)[C@H]1C | 134 nM | 67 nM
C=C/C=C\[C@H](C)[C@H](O)[C@@H](C)[C@H](O)[C@@H](C)C/C(C)=C\[C@H](C)[C@@H](O)[C@@H](C)/C=C\[C@@H](O)C[C@@H]1OC(=O)[C@H](C)[C@@H](O)[C@H]1C | 128 nM | 74 nM
C=C/C=C\C(C)C(OC(N)=O)C(C)C(O)C(C)/C=C(\C)C1C(C)C(O)C(C)C1/C=C/C[C@@H]1OC(=O)[C@H](C)[C@@H](O)[C@@H]1C (stereo partly specified) | 5040 nM | 4490 nM
C=C/C=C\[C@H](C)[C@H](OC(N)=O)[C@@H](C)[C@H](O)[C@@H](C)C/C(C)=C\[C@H](C)[C@@H](O)[C@@H](C)/C=C\[C@@H](O)C[C@@H]1OC(=O)[C@H](C)[C@@H](O)[C@H]1C [DISERMOLIDE] |  | 13.5 nM
